Results: the supplement of paper PMC11208160

Assay: recombinant UMI read abundance after kanamycin selection (control-corrected) (log10(CPM+1)); higher = more efficient recombination; extreme values may be limits of the assay; sequences stand for … in AGTGCAGAGAAAATCGGCCAGTTTTCTCTGCCTGCAGTCCGCATGCCGTGGGACCCCTTGGGTTCTAACCTGTTGCCTAGATTTATGCAGCGGACTGCCTTTCTCCCAAAGTGATAAACCGG…AGGTTGGTTTCACT; site = the 11-nt donor
Outline: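 The measure is log10(CPM+1) for recombinant UMIs. These were PCR-amplified across the donor–target junction and sequenced after Escherichia coli carrying a donor and donor-binding-loop pair library and a target plasmid with T7-inducible IS621 bridge recombinase was plated on IPTG (0.07 mM) plus kanamycin or unselected. CPM were averaged over two replicates and scaled by control-derived factors.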
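Note: IS621 bridge recombinase in Escherichia coli cells against a fixed T5 target plasmid.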

Sequence | recombinant UMI read abundance (log10)
TCCTATTCATGGACCGGTTTTCCCGGTAATCCGTATTTGCC (site TCCAATTCTGG) | 0
TCCTATTCATGGACCGGTTTTCCCGGTAATCCGTATTTGCC (site TCCCATTCTGG) | 0
TCCTATTCATGGACCGGTTTTCCCGGTAATCCGTATTTGCC (site TCCGATTCTGG) | 0
TCCTATTCATGGACCGGTTTTCCCGGTAATCCGTATTTGCC (site TCCTATTCTGG) | 0
TCCTCCCCATGGACCGGTTTTCCCGGTAATCCGTATTTGCG (site TCCTCCCCTCG) | 0.00424
TCCTCCGCATGGACCGGTTTTCCCGGTAATCCGTATTTGCG (site TCCACCGCTCG) | 0.00517
TCCTCCGCATGGACCGGTTTTCCCGGTAATCCGTATTTGCG (site TCCCCCGCTCG) | 0.0138
TCCTCCGCATGGACCGGTTTTCCCGGTAATCCGTATTTGCG (site TCCGCCGCTCG) | 0
TCCTCCGCATGGACCGGTTTTCCCGGTAATCCGTATTTGCG (site TCCTCCGCTCG) | 0.0201
TCCTCCTCATGGACCGGTTTTCCCGGTAATCCGTATTTGCC (site TCCTCCTCTGG) | 0
TCCTTGACATGGACCGGTTTTCCCGGTAATCCGTATTTGCT (site TACTTGACTAG) | 0.397
TCCTTGACATGGACCGGTTTTCCCGGTAATCCGTATTTGCT (site TCCTTGACTAG) | 0
TCCTTGACATGGACCGGTTTTCCCGGTAATCCGTATTTGCT (site TGCTTGACTAG) | 0
TCCTTGACATGGACCGGTTTTCCCGGTAATCCGTATTTGCT (site TTCTTGACTAG) | 0
TCGAAGCCATGGACCGGTTTTCCCGGTAATCCGTATTTGGG (site ACGAAGCCTCC) | 0.0545
TCGAAGCCATGGACCGGTTTTCCCGGTAATCCGTATTTGGG (site CCGAAGCCTCC) | 0.0131
TCGAAGCCATGGACCGGTTTTCCCGGTAATCCGTATTTGGG (site GCGAAGCCTCC) | 0.0961
TCGAAGCCATGGACCGGTTTTCCCGGTAATCCGTATTTGGG (site TCGAAGCCTCC) | 0.0129
TCGAATACATGGACCGGTTTTCCCGGTAATCCGTATTTGAG (site TCGAATACTCT) | 1.44

Sequence | recombinant UMI read abundance (log10)
TCGACAGCATGGACCGGTTTTCCCGGTAATCCGTATTTGTA (site TCGACAGCTTA) | 1.02
TCGACATCATGGACCGGTTTTCCCGGTAATCCGTATTTGCG (site TCGACATCTCG) | 0.266
TCGACCGCATGGACCGGTTTTCCCGGTAATCCGTATTTGCG (site TCAACCGCTCG) | 0.00755
TCGACCGCATGGACCGGTTTTCCCGGTAATCCGTATTTGCG (site TCCACCGCTCG) | 0
TCGACCGCATGGACCGGTTTTCCCGGTAATCCGTATTTGCG (site TCGACCGCTCG) | 0.0218
TCGACCGCATGGACCGGTTTTCCCGGTAATCCGTATTTGCG (site TCTACCGCTCG) | 0.0287
TCGACCTCATGGACCGGTTTTCCCGGTAATCCGTATTTGGA (site TCGACCTCTTC) | 0.524
TCGAGAGCATGGACCGGTTTTCCCGGTAATCCGTATTTGGC (site TCGAGAGCTGC) | 1.86
TCGCACACATGGACCGGTTTTCCCGGTAATCCGTATTTGGG (site TCGCACACTCC) | 0.0145
TCGCAGACATGGACCGGTTTTCCCGGTAATCCGTATTTGCG (site TCGCAGACTCG) | 0.0105
TCGCAGCCATGGACCGGTTTTCCCGGTAATCCGTATTTGCT (site TCGCAGCCTAG) | 0
TCGCCATCATGGACCGGTTTTCCCGGTAATCCGTATTTGGC (site GAAGGCCCTAG) | 0
TCGCGTACATGGACCGGTTTTCCCGGTAATCCGTATTTGGG (site TCGCGTACTCC) | 0.0193
TCGCTAGCATGGACCGGTTTTCCCGGTAATCCGTATTTGCT (site TCGCTAGCTAG) | 0
TCGCTCTCATGGACCGGTTTTCCCGGTAATCCGTATTTGGC (site TCGCTCTCTGC) | 0
TCGCTGACATGGACCGGTTTTCCCGGTAATCCGTATTTGTA (site TCGCTGACTTA) | 1.3
TCGGACCCATGGACCGGTTTTCCCGGTAATCCGTATTTGGG (site TCGGACCCTCC) | 0.036
TCGGACCCATGGACCGGTTTTCCCGGTAATCCGTATTTGTT (site TCGGACCCTAA) | 0.013
